# According to patent publication US20180319810A1, “SUBSTITUTED BRIDGED UREA ANALOGS AS SIRTUIN MODULATORS” (GlaxoSmithKline Intellectual Property (No.2) Limited, priority 2014, published 2018):
# Target: T1, SIRT1 (Homo sapiens, UniProt Q96EB6)
# T1 sequence (Q96EB6 1-747): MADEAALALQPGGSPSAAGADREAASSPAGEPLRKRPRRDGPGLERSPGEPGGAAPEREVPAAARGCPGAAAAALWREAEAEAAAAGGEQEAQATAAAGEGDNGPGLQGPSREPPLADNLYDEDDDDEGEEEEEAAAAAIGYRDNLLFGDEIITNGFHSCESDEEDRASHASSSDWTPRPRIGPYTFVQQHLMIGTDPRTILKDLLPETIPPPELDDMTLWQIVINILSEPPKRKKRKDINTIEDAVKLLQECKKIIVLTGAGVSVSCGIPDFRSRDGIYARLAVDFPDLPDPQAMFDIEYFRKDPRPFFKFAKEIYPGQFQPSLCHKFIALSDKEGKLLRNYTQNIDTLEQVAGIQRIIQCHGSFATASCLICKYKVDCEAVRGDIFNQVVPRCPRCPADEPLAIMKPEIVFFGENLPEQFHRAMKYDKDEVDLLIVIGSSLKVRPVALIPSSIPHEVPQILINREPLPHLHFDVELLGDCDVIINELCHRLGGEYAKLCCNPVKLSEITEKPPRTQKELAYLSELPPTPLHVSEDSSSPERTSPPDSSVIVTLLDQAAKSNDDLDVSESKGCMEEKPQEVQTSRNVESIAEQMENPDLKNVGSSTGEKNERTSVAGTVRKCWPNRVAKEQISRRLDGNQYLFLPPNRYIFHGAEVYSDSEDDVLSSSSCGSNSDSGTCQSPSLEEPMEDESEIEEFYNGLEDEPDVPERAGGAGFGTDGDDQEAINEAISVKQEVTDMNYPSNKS
# Experiment: Trp mass spectrometry assay of SIRT1 activation
# Type: biochemical
# Details: Trp peptide Ac-R-H-K-K(Ac)-W-NH2 0.5 μM, 120 μM βNAD+, 10 nM SIRT1, 25 min, 25° C.
# Description: Mass spectrometry based assays were used to identify modulators of SIRT1 activity. […] The peptide was labeled with the fluorophore 5TMR (excitation 540 nm/emission 580 nm) at the C-terminus. The sequence of the peptide substrate was based on p53 with several modifications. In addition, the methionine residue naturally present in the sequence was replaced with the norleucine because the methionine may be susceptible to oxidation during synthesis and purification.
# The Trp mass spectrometry assay was conducted as follows. […] The SIRT1 protein was obtained by cloning the SirT1 gene into a T7-promoter containing vector, which was then expressed in BL21(DE3) bacterial cells and purified as described in further detail below. Test compound was added at varying concentrations to this reaction mixture and the resulting reactions were monitored. After the 25 minute incubation with SIRT1, 10 μL of 10% formic acid was added to stop the reaction. The resulting reactions were sealed and frozen for later mass spec analysis. The relative SIRT1 activity was then determined by measuring the amount of O-acetyl-ADP-ribose (OAADPR) formed (or, alternatively, the amount of deacetylated Trp peptide generated) by the NAD-dependent sirtuin deacetylation reaction in the presence of varying concentrations of the test compound versus control reactions lacking the test compound.
# The degree to which the test agent activated deacetylation by SIRT1 was expressed as EC1.5 (i.e., the concentration of compound required to increase SIRT1 activity by 50% over the control lacking test compound), and Percent Maximum Activation (i.e., the maximum activity relative to control (100%) obtained for the test compound).
# This time point was the same as that used for test compounds and, within the linear range, the endpoint represents a change in velocity.
# For the above assay, SIRT1 protein was expressed and purified as follows. The SirT1 gene was cloned into a T7-promoter containing vector and transformed into BL21(DE3). The protein was expressed by induction with 1 mM IPTG as an N-terminal His-tag fusion protein at 18° C. overnight and harvested at 30,000×g. Cells were lysed with lysozyme in lysis buffer (50 mM Tris-HCl, 2 mM Tris[2-carboxyethyl]phosphine (TCEP), 10 μM ZnCl2, 200 mM NaCl) and further treated with sonication for 10 min for complete lysis. The protein was purified over a Ni-NTA column (Amersham) and fractions containing pure protein were pooled, concentrated and run over a sizing column (Sephadex S200 26/60 global). The peak containing soluble protein was collected and run on an Ion-exchange column (MonoQ). Gradient elution (200 mM-500 mM NaCl) yielded pure protein. This protein was concentrated and dialyzed against dialysis buffer (20 mM Tris-HCl, 2 mM TCEP) overnight. The protein was aliquoted and frozen at −80° C. until further use.
# “NT” means not tested; “ND” means not determinable.
Compound,"TRP Activity (EC1.5, concentration of compound required to increase SIRT1 activity by 50% over control)",TRP MAX RESP (percent maximum fold activation relative to control)
"O=C(Nc1cncc(OC[C@H](O)CO)n1)N1c2nc(-c3cccc(C(F)(F)F)c3)ncc2N2CC[C@H]1C2 [Example 37, (8S)—N-(6-((R)-2,3-dihydroxypropoxy)pyrazin-2-yl)-2-(3-(trifluoromethyl)phenyl)-7,8-dihydro-5,8-methanopyrimido[4,5-b][1,4]diazepine-9(6H)-carboxamide]",B (EC1.5 1-25 μM),A (Fold activation ≥150%)
"O=C(Nc1cnnc(OC[C@@H](O)CO)c1)N1c2nc(-c3cccc(C(F)(F)F)c3)ncc2N2CC[C@H]1C2 [Example 54, (8S)—N-(6-((S)-2,3-dihydroxypropoxy)pyridazin-4-yl)-2-(3-(trifluoromethyl)phenyl)-7,8-dihydro-5,8-methanopyrimido[4,5-b][1,4]diazepine-9(6H)-carboxamide]",B (EC1.5 1-25 μM),A (Fold activation ≥150%)
"O=C(NC1CC1)N1c2nc(-c3cccc(C(F)(F)F)c3)ncc2N2CC[C@H]1C2 [Example 15, (8S)—N-cyclopropyl-2-(3-(trifluoromethyl)phenyl)-7,8-dihydro-5,8-methanopyrimido[4,5-b][1,4]diazepine-9(6H)-carboxamide]",A (EC1.5<1 μM),A (Fold activation ≥150%)
"O=C(Nc1ccnc(O[C@@H]2CCOC2)n1)N1c2nc(-c3cccc(C(F)(F)F)c3)ncc2N2CC[C@H]1C2 [Example 14, (8S)—N-(2-(((R)-tetrahydrofuran-3-yl)oxy)pyrimidin-4-yl)-2-(3-(trifluoromethyl)phenyl)-7,8-dihydro-5,8-methanopyrimido[4,5-b][1,4]diazepine-9(6H)-carboxamide]",B (EC1.5 1-25 μM),A (Fold activation ≥150%)
"O=C(Nc1ccc(OC[C@@H](O)CO)nc1)N1c2nc(-c3cccc(C(F)(F)F)c3)ncc2N2CC[C@H]1C2 [Example 38, (8S)—N-(6-((S)-2,3-dihydroxypropoxy)pyridin-3-yl)-2-(3-(trifluoromethyl)phenyl)-7,8-dihydro-5,8-methanopyrimido[4,5-b][1,4]diazepine-9(6H)-carboxamide]",A (EC1.5<1 μM),A (Fold activation ≥150%)
"Cl.O=C(Nc1ccnc(OC[C@H](O)CO)c1)N1c2nc(-c3cccc(C(F)(F)F)c3)ncc2N2CC[C@H]1C2 [Example 34, (8S)—N-(2-((R)-2,3-dihydroxypropoxy)pyridin-4-yl)-2-(3-(trifluoromethyl)phenyl)-7,8-dihydro-5,8-methanopyrimido[4,5-b][1,4]diazepine-9(6H)-carboxamide hydrochloride]",A (EC1.5<1 μM),A (Fold activation ≥150%)
"O=C(Nc1cnc(OC[C@H](O)CO)cn1)N1c2nc(-c3cccc(C(F)(F)F)c3)ncc2N2CC[C@H]1C2 [Example 18, (8S)—N-(5-((R)-2,3-dihydroxypropoxy)pyrazin-2-yl)-2-(3-(trifluoromethyl)phenyl)-7,8-dihydro-5,8-methanopyrimido[4,5-b][1,4]diazepine-9(6H)-carboxamide]",B (EC1.5 1-25 μM),A (Fold activation ≥150%)
"O=C(Nc1ccnc(OC[C@@H](O)CO)c1)N1c2nc(-c3cccc(C(F)(F)F)c3)ncc2N2CC[C@H]1C2 [Example 32, (8S)—N-(2-((S)-2,3-dihydroxypropoxy)pyridin-4-yl)-2-(3-(trifluoromethyl)phenyl)-7,8-dihydro-5,8-methanopyrimido[4,5-b][1,4]diazepine-9(6H)-carboxamide]",A (EC1.5<1 μM),A (Fold activation ≥150%)
"O=C(Nc1nccc(OC[C@H](O)CO)n1)N1c2nc(-c3cccc(C(F)(F)F)c3)ncc2N2CC[C@H]1C2 [Example 26, (8S)—N-(4-((R)-2,3-dihydroxypropoxy)pyrimidin-2-yl)-2-(3-(trifluoromethyl)phenyl)-7,8-dihydro-5,8-methanopyrimido[4,5-b][1,4]diazepine-9(6H)-carboxamide]",B (EC1.5 1-25 μM),A (Fold activation ≥150%)

# Other lines, results leading:
"TRP Activity (EC1.5, concentration of compound required to increase SIRT1 activity by 50% over control)",TRP MAX RESP (percent maximum fold activation relative to control),Compound
A (EC1.5<1 μM),A (Fold activation ≥150%),"Cc1nc(C(=O)N[C@H](C)C(F)(F)F)nc2c1N1CCC[C@@H](C1)N2C(=O)Nc1ccc(OC[C@@H](O)CO)cn1 [Example 118, (9S)—N10-(5-((S)-2,3-dihydroxypropoxy)pyridin-2-yl)-4-methyl-N2-((R)-1,1,1-trifluoropropan-2-yl)-8,9-dihydro-6H-5,9-methanopyrimido[4,5-b][1,4]diazocine-2,10(7H)-dicarboxamide]"
A (EC1.5<1 μM),A (Fold activation ≥150%),"Cc1nc(-c2cccc(C(F)(F)F)c2)nc2c1N1CCC[C@@H](C1)N2C(=O)Nc1cncc(OC[C@@H](O)CO)c1 [Example 109, (9S)—N-(5-((S)-2,3-dihydroxypropoxy)pyridin-3-yl)-4-methyl-2-(3-(trifluoromethyl)phenyl)-8,9-dihydro-6H-5,9-methanopyrimido[4,5-b][1,4]diazocine-10(7H)-carboxamide]"
A (EC1.5<1 μM),A (Fold activation ≥150%),"O=C(Nc1cc(OC[C@H](O)CO)ccn1)N1c2nc(-c3cccc(C(F)(F)F)c3)ncc2N2CCC[C@H]1C2 [Example 80, (9S)—N-(4-((R)-2,3-dihydroxypropoxy)pyridin-2-yl)-2-(3-(trifluoromethyl)phenyl)-8,9-dihydro-6H-5,9-methanopyrimido[4,5-b][1,4]diazocine-10(7H)-carboxamide]"
B (EC1.5 1-25 μM),A (Fold activation ≥150%),"O=C(Nc1ncc(OC[C@H](O)CO)cn1)N1c2nc(-c3cccc(C(F)(F)F)c3)ncc2N2CC[C@H]1C2 [Example 41, (8S)—N-(5-((R)-2,3-dihydroxypropoxy)pyrimidin-2-yl)-2-(3-(trifluoromethyl)phenyl)-7,8-dihydro-5,8-methanopyrimido[4,5-b][1,4]diazepine-9(6H)-carboxamide]"
A (EC1.5<1 μM),A (Fold activation ≥150%),"C[C@@H](NC(=O)c1ncc2c(n1)N(C(=O)Nc1ccc(OC[C@@H](O)CO)cn1)[C@H]1CCCN2C1)C(F)(F)F [Example 119, (9S)—N10-(5-((S)-2,3-dihydroxypropoxy)pyridin-2-yl)-N2-((R)-1,1,1-trifluoropropan-2-yl)-8,9-dihydro-6H-5,9-methanopyrimido[4,5-b][1,4]diazocine-2,10(7H)-dicarboxamide]"
